# System: Mycobacterium tuberculosis H37Rv strains
# Test: In vitro assay for antimicrobial susceptibility (microplate Alamar blue MIC)
# Type: cell-based
# Conditions: Mycobacterium tuberculosis, H37RV, 7H9, Alamar blue, inhibition ≧90%; read-out: MIC (μg/mL) against H37Rv
row,SMILES,MIC
1,"CC(C)/N=c1\cc2n(-c3ccc(Cl)cc3)c3ccccc3nc-2cc1Nc1ncccn1 [TBI-1051, 5-(4-chlorophenyl)-3-(1-methylethyl)imino-2-(pyrimidin-2-yl)amino-3,5-dihydrophenazine]",0.015 µg/mL
2,"CC(C)/N=c1\cc2n(-c3ccc(F)cc3)c3ccccc3nc-2cc1Nc1ncccc1[N+](=O)[O-] [TBI-1052, 5-(4-Fluorophenyl)-3-(1-methylethyl)imino-2-(3-nitro-2-pyridyl)amino-3,5-dihydrophenazine]",0.022 µg/mL
3,"CC(C)/N=c1\cc2n(-c3ccc(F)cc3)c3ccccc3nc-2cc1Nc1ncccn1 [TBI-1053, 5-(4-Fluorophenyl)-3-(1-methylethyl)imino-2-(pyrimidin-2-yl)amino-3,5-dihydrophenazine]",0.015 µg/mL
4,"CC(C)/N=c1\cc2n(-c3ccc(F)cc3)c3ccccc3nc-2cc1Nc1ccccn1 [TBI-1054, 5-(4-Fluorophenyl)-3-(1-methylethyl)imino-2-(2-pyridyl)amino-3,5-dihydrophenazine]",0.446 µg/mL
5,"CC(C)/N=c1\cc2n(-c3ccc(F)cc3)c3ccccc3nc-2cc1Nc1cnccn1 [TBI-1055, 5-(4-Fluorophenyl)-3-(1-methylethyl)imino-2-(pyrazin-2-yl)amino-3,5-dihydrophenazine]",0.022 µg/mL
6,CC(C)/N=c1\cc2n(-c3ccc(F)cc3)c3ccccc3nc-2cc1Nc1ncccc1C#N [TBI-1057],0.015 µg/mL

# Same assay, conditions: Mycobacterium tuberculosis, H37RV, in vitro, Mycobacterium tuberculosis H37Rv strains; read-out: MIC (μg/mL) against H37Rv
row,SMILES,MIC
1,"COC1CCC(/N=c2\cc3n(-c4cccc(OC(F)(F)F)c4)c4ccccc4nc-3cc2Nc2cccnc2C)CC1 (centres unmarked) [TBI-1033, 5-(3-Trifluoromethoxyphenyl)-3-(4-methoxycyclohexyl)imino-2-(2-methyl-3-pyridyl)amino-3,5-dihydrophenazine]",0.242 µg/mL
2,"Cc1ncccc1Nc1cc2nc3ccccc3n(-c3cccc(OC(F)(F)F)c3)c-2c/c1=N\C1CCCCC1 [TBI-1034, 5-(3-Trifluoromethoxyphenyl)-3-cyclohexylimino-2-(2-methyl-3-pyridyl)amino-3,5-dihydrophenazine]",0.059 µg/mL
3,"Cc1ncccc1Nc1cc2nc3ccccc3n(-c3cccc(OC(F)(F)F)c3)c-2c/c1=N\C1CCOCC1 [TBI-1035, 5-(3-Trifluoromethoxyphenyl) 3-(4-tetrahydropyranyl)imino-2-(2-methyl-3-pyridyl)amino-3,5-dihydrophenazine]",0.062 µg/mL
4,"COc1ncccc1Nc1cc2nc3ccccc3n(-c3cccc(OC(F)(F)F)c3)c-2c/c1=N\C(C)C [TBI-1038, 5-(3-Trifluoromethoxyphenylethylethyl)imino-2-(2-methoxy-3-pyridyl)amino-3,5-dihydrophenazine]",0.118 µg/mL
5,"COc1ncccc1Nc1cc2nc3ccccc3n(-c3cccc(OC(F)(F)F)c3)c-2c/c1=N\C1CCC(OC)CC1 (centres unmarked) [TBI-1039, 5-(3-Trifluoromethoxyphenyl)-3-(4-methoxycyclohexyl)imino-2-(2-methoxy-3-pyridyl)amino-3,5-dihydrophenazine]",0.059 µg/mL
6,"COc1ncccc1Nc1cc2nc3ccccc3n(-c3cccc(OC(F)(F)F)c3)c-2c/c1=N\C1CCCCC1 [TBI-1040, 5-(3-Trifluoromethoxyphenyl)-3-cyclohexylimino-2-(2-methoxy-3-pyridyl)amino-3,5-dihydrophenazine]",0.086 µg/mL
7,"COc1ncccc1Nc1cc2nc3ccccc3n(-c3cccc(OC(F)(F)F)c3)c-2c/c1=N\C1CCOCC1 [TBI-1041, 5-(3-Trifluoromethoxyphenyl)-3-(4-tetrahydropyranyl)imino-2-(2-methoxy-3-pyridyl)amino-3,5-dihydrophenazine]",0.115 µg/mL
8,"COc1ncccc1Nc1cc2nc3ccccc3n(-c3ccc(F)cc3)c-2c/c1=N\C1CCSCC1 [TBI-1042, 5-(4-Fluorophenyl)-3-(4-tetrahydrothiopyranyl)imino-2-(2-methoxy-3-pyridyl)amino-3,5-dihydrophenazine]",0.034 µg/mL
9,"Cc1ncccc1Nc1cc2nc3ccccc3n(-c3ccc(F)cc3)c-2c/c1=N\C1CCSCC1 [TBI-1043, 5-(4-Fluorophenyl)-3-(4-tetrahydrothiopyranyl)imino-2-(2-methyl-3-pyridyl)amino-3,5-dihydrophenazine]",0.021 µg/mL
10,"COc1ncccc1Nc1cc2nc3ccccc3n(-c3ccccc3OC(F)(F)F)c-2c/c1=N\C1CCC(OC)CC1 (centres unmarked) [TBI-1044, 5-(2-Trifluoromethoxyphenyl)-3-(4-methoxycyclohexyl)imino-2-(2-methoxy-3-pyridyl)amino-3,5-dihydrophenazine]",0.25 µg/mL
11,"COc1ncccc1Nc1cc2nc3ccccc3n(-c3ccccc3OC(F)(F)F)c-2c/c1=N\C1CCOCC1 [TBI-1045, 5-(2-Trifluoromethoxyphenyl)-3-(4-tetrahydropyranyl)imino-2-(2-methoxy-3-pyridyl)amino-3,5-dihydrophenazine]",0.4 µg/mL
12,"COc1ncccc1Nc1cc2nc3ccccc3n(-c3ccccc3OC(F)(F)F)c-2c/c1=N\C(C)C [TBI-1046, 5-(2-Trifluoromethoxyphenyl)-3-(1-methylethyl)imino-2-(2-methoxy-3-pyridyl)amino-3,5-dihydrophenazine]",0.44 µg/mL
13,"COc1ncccc1Nc1cc2nc3ccccc3n(-c3ccccc3OC(F)(F)F)c-2c/c1=N\C1CCCCC1 [TBI-1047, 5-(2-Trifluoromethoxyphenyl)-3-cyclohexylimino-2-(2-methoxy-3-pyridyl)amino-3,5-dihydrophenazine]",0.465 µg/mL
14,"COCC(COC)/N=c1\cc2n(-c3ccc(F)cc3)c3ccccc3nc-2cc1Nc1cccnc1OC [TBI-1048, 5-(4-Fluorophenyl)-3-(1,3-dimethoxyisopropyl)imino-2-(2-methoxy-3-pyridyl)amino-3,5-dihydrophenazine]",0.226 µg/mL
15,"COCC(C/N=c1\cc2n(-c3ccc(F)cc3)c3ccccc3nc-2cc1Nc1cccnc1OC)OC (centres unmarked) [TBI-1049, 5-(4-Fluorophenyl)-3-(2,3-dimethoxy-1-propyl)imino-2-(2-methoxy-3-pyridyl)amino-3,5-dihydrophenazine]",0.162 µg/mL
16,"COc1ncccc1Nc1cc2nc3cc(C#N)ccc3n(-c3ccc(F)cc3)c-2c/c1=N\C(C)C [TBI-1064, 8-Cyano-5-(4-fluorophenyl)-3-(1-methylethyl)imino-2-(2-methoxy-3-pyridyl)amino-3,5-dihydrophenazine]",0.24 µg/mL
17,"COc1ncccc1Nc1cc2nc3cc(C#N)ccc3n(-c3ccc(F)cc3)c-2c/c1=N\C1CCC(OC)CC1 (centres unmarked) [TBI-1065, 8-Cyano-5-(4-fluorophenyl)-3-(4-methyoxycyclohexyl)imino-2-(2-methoxy-3-pyridyl)amino-3,5-dihydrophenazine]",> 16 µg/mL
18,"COc1ncccc1Nc1cc2nc3cc(C#N)ccc3n(-c3ccc(F)cc3)c-2c/c1=N\C1CCOCC1 [TBI-1066, 8-Cyano-5-(4-fluorophenyl)-3-(4-tetrahydropyranyl)imino-2-(2-methoxy-3-pyridyl)amino-3,5-dihydrophenazine]",> 6.64 µg/mL
19,"Cc1ccc(Nc2cc3nc4cc(C#N)ccc4n(-c4ccc(F)cc4)c-3c/c2=N\C(C)C)cn1 [TBI-1067, 8-Cyano-5-(4-fluorophenyl)-3-(1-methylethyl)imino-2-(6-methyl-3-pyridyl)amino-3,5-dihydrophenazine]",0.117 µg/mL
20,"COC1CCC(/N=c2\cc3n(-c4ccc(F)cc4)c4ccc(C#N)cc4nc-3cc2Nc2ccc(C)nc2)CC1 (centres unmarked) [TBI-1068, 8-Cyano-5-(4-fluorophenyl)-3-(4-methyoxycyclohexyl)imino-2-(6-methyl-3-pyridyl)amino-3,5-dihydrophenazine]",0.165 µg/mL
